Each structure is given as a SMILES string.

The nature of this data set: Neutralization of odoriferous acid by GC-FID. The format is physicochemical. The procedure:
Hexamine, which is weakly basic in nature, was incubated with two commonly known odoriferous acids, i.e., 3-hydroxy-3-methyl-hexanoic acid (HMHA) and hexanoic acid, and the potential neutralization effect was studied by using a Gas Chromatograph with a Flame Ionization Detector (GC-FID). The chromatograms showing the neutralization of 3-hydroxy-3-methyl-hexanoic acid (HMHA) by sodium hydroxide and hexamine; and the neutralization of hexanoic acid by hexamine are shown in FIGS. 1 and 2, respectively.

Regarding `C1N2CN3CN1CN(C2)C3` [hexamine], the “neutralization of odoriferous acid” value by setting is: (FIG. 1) “capable of neutralizing the tested odoriferous acids”; (FIG. 2) “capable of neutralizing the tested odoriferous acids”.

The record behind these values is patent US10596092B2, “Deodorant composition and a method for preparing thereof” (priority 2017, dated 2020).
